Test results from article PMC11969537 (ACS Chemical Neuroscience, 2025).
pIC50: −log10 of the molar value.

Target: cathepsin B (Mus musculus, UniProt P10605)
Assay: fluorogenic protease assay with Z-Phe-Arg-AMC at pH […]
Format: biochemical

cathepsin B, sequence (P10605 80-333): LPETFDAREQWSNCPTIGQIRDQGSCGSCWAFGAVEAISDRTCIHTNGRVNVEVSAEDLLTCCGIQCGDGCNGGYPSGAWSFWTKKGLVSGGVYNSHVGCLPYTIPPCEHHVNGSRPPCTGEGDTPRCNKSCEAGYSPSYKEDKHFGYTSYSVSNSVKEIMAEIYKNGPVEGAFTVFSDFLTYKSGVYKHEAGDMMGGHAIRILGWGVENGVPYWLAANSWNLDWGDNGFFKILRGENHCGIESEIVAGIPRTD

Compound: Cc1cccc(C)c1C(=O)OCC(=O)[C@H](CCCCN)NC(=O)[C@H](CCCNC(=N)N)NC(=O)OCc1ccccc1 [Z-Arg-Lys-AOMK]
- pIC50: 7.60
